Patent publication US20050123477A1, “Benzothiazole derivatives for in vivo imaging of amloid plaques” (priority 2002, published 2005)
Where no end group is shown, it is not given here.

Key:
[1] = Brain Uptake Index (BUI) method; assay type: in vivo; details: for Mean BUI: carotid artery bolus, decapitated after 15 seconds, relative to 14C-Butanol
Procedure: BUI is calculated according to the following equation: [formula] BUI was performed on three animals from the same test solution for each experiment. Each compound was assayed in duplicate.

[2] = target: T1, fibrillar Beta-Amyloid Protein (BAP 1-40) (Homo sapiens, UniProt P05067); assay: Amyloid binding on SPA beads; details: 180 minutes at room temperature, equimolar amounts, non-specific binding subtracted
T1 construct: 25 μl BAP 1-40 (10 mg/ml, Biosource 03-138); purchased Biosource 03-138 (BAP 1-40); 03-243 (biotinylated BAP 1-40)
Procedure: The binding of Compound 1 (74 TBq/mmol) was determined compared to the ability of ^125I-beta amyloid protein 1-40 (^125I-BAP 1-40, Amersham Biosciences IM294)) to bind to amyloid 140 fibrils. Amyloid binding was essentially performed as follows.
Three fresh buffer stocks were prepared for experiments: Buffer 1, 50 mM HEPES/0.1 % Bovine Serum Albumin (BSA) pH 7.5; Buffer 2, 50 mM HEPES/0.1% BSA/400 μM ZnCl2 pH 7.5; Buffer 3, 50 mM HEPES/0.1% BSA/100 μM ZnCl2 pH 7.5.
Streptavidin coated scintillation proximity assay beads (SA-SPA beads, Amersham Biosciences) were used to immobilise fibrillar Beta-Amyloid Protein (BAP 1-40). Amyloid coated beads (SPA-BAP) were prepared by incubating 250 μl SA-SPA beads (100 mg/ml) with 250 μl Buffer 2, 425 μl Buffer 1, 50 μl biotinylated BAP 1-40 (0.5 mg/ml, Biosource 03-243), 25 μl BAP 1-40 (10 mg/ml, Biosource 03-138). Non-specific binding SPA beads (SPA-NSB) were prepared to assess the binding of compounds to SPA beads with no associated BAP 1-40 fibrils in the following incubation: 250 μl SA-SPA beads (100 mg/ml) with 250 μL Buffer 2,500 μl Buffer 1.
SPA-BAP and SPA-NSB incubations were left for 24 hours at room temperature and then spun 1.5 ml tubes (eppendorf, Merk, 306/0421/12) for 2 minutes at 1000×g. The supernatants were removed and the beads were washed twice by resuspending them in 1 ml Buffer 3 followed by centrifugation for 2 minutes at 1000×g. Finally, washed SPA-BAP and SPA-NSB beads were resuspended in 1 ml Buffer 3.
Amyloid binding of ^125I-BAP 1-40 and Compound 1 was performed in triplicate in 0.5 ml tubes (eppendorf, Merk, 306/0421/02) by adding 50 μl SPA-BAP beads to 25 μl Buffer 2 and 25 μl labelled compound (^125I-BAP 1-40 or Compound 1). Tubes were then incubated for 180 minutes at room temperature with shaking, followed by centrifugation for 2 minutes at 1000×g. The supernatants were removed and SPA-BAP pellet washed twice with 300 μl Buffer 3 containing 1% TWEEN-20 (Sigma, P7949). Non-specific binding for labelled compounds to the SPA beads was determined using incubations as described above but by substituting SPA-BAP beads with SPA-NSB beads. Radioactivity associated with the washed SPA bead pellets was then determined.
The affinity of labelled compounds for fibrillar BAP 1-40 was estimated by subtracting SPA-NSB associated counts from SPA-BAP associated counts. The binding of labelled compounds was then compared to ^125I-BAP binding, which was taken as being 100%.
In these experiments, ^125-BAP 1-40 or Compound 1 were added in equimolar amounts (between 1-5×10^−11 mmoles per incubation).

[3] = Pharmacokinetics / biodistribution; assay type: in vivo, normal male wistar rats; details: for percentage injected dose, Blood / percentage injected dose, Brain / percentage injected dose, Fat / percentage injected dose, Kidney / percentage injected dose, LI (large intestines) / percentage injected dose, Muscle / percentage injected dose, SI (small intestines) / percentage injected dose, Skin / percentage injected dose, Spleen / percentage injected dose, Stomach / percentage injected dose, inj site / percentage injected dose, liver / percentage injected dose, lung / percentage injected dose, thyroid / percentage injected dose, urine: tail vein
Procedure: Compound 1 IMQ1961 prepared by Amersham Biosciences 250 μCi/ml (specific activity 2000Ci/mmol) freshly diluted to give 1 μCi/0.1 ml volume injection bolus. 15 normal male wistar rats 150-180 g (Charles River).
Male wistar rats were anaethetised briefly prior to injection with Compound 1 (1 μCi, 0.1 ml bolus tail vein). Biodistributions were performed at five time points (5, 15, 30, 60 and 120 mins) in triplicate animals in which tissues from brain, blood, muscle, kidney, spleen, stomach, small intestines, large intestines and faeces, bladder and urine, fat, skin and thyroid were dissected and counted for distribution of the compound in the body in a Wallac Wizzard gamma counter.
Percentage injected dose calculations were made and plotted using the Qk pharmacokinetics program to determine t½ α, and volume of distribution (VD). Relative retention (RR) and Brain:tissue ratios were calculated as follows; [formula] [formula] Results and Discussion

CACO-2 cells = assay: CACO-2 cell apparent permeability (Papp), BBB model; details: CACO-2 monolayers in Transwells, 30 minutes at 37° C., donor to acceptor
Procedure: Culturing of CACO-2 cells and Determination of Apparent Permeability (Papp) Values:
The seeding of 12 mm Transwells was as follows for CACO-2. Flasks of confluent cultures were trypsinsed and cells were carefully resuspended, making sure there are no clumps or air bubbles. 1.5 ml of tissue culture medium was placed in the bottom (acceptor) chamber of the wells and 0.5 ml containing 2×10^5 cells in the Transwell (donor chamber) and placed in the incubator. The cells were routinely monitored for adequate trans epithelial electrical resistance (TEER) using an EndOhm Tissue resistance measurement chamber (WPI). The subsequent maintenance and feeding of the cells on the Transwells was as follows: when feeding the wells, the medium was removed from the acceptor chamber (basolateral side) and donor chamber (apical side) of the Transwells. The medium was aspirated off with a pipette connected to a vacuum pump, being careful not to touch the filter. 0.5 ml of growth medium was then placed into the donor chamber and 1.5 ml of growth medium was placed into the acceptor chamber.
When the TEER values of the CACO-2 cell monolayers in Transwells was around 500 Ωcm^2 (300-800 Ωcm^2 was considered acceptable) permeability experiments were performed in triplicate as follows. All culture media was removed and acceptor and donor chambers were rinsed twice with Eagles Balance Salt Solution (EBSS) (Gibco) at 37° C. 1.5 ml EBSS was added to the acceptor chamber and 0.5 ml EBSS containing radiolabelled compound was added to the donor chamber. Cultures in Transwells were then incubated for 30 minutes at 37° C. at 200 rpm using a Labnet Vortemp. After 30 minutes, 100 μl aliquot was taken from the donor chamber and 750 μl from the acceptor chamber. These aliquots were then counted for radioactivity. The remaining EBSS was removed from the acceptor and donor chambers and then the Transwell was thoroughly rinsed three times la with EBSS. Next, the Transwell membrane (and associated cells) was removed using a scalpel and the amount of radiolabel associated with it was determined.
Permeability of compounds were determined by calculating their Papp value: Papp=ΔQ/Δt.60.A.Co (cm/sec)

LogP and delta LogP = assay type: physicochemical
Capillary depletion = details: carotid bolus, brain removed ten seconds after injection
Procedure: Compounds that may appear to cross the blood-brain barrier may be sticking to the vasculature within the brain, rather than entering the brain parenchyma. For this reason a capillary depletion method was employed that separates the capillaries from brain homogenate.
Male Wistar rats weighing 150-250 g were deeply anaesthetised by the administration of 55 mg/kg sodium pentabarbital (Rhone-Meriaux) by intra peritoneal injection. The left common carotid artery was exposed by blunt dissection, and 100 μl of test solution injected in a single bolus into the carotid using a 30G needle and 1ml syringe (injection time ˜1 second). The injectate contained both the test/validation compound and ^14C— or ^3H-Sucrose (Amersham Biosciences) as a non-diffusable standard. Ten seconds after injection, the animal was decapitated and the brain removed. […] Pellet, supernatant and a sample of injection solution were counted on a Rackbeta Excel scintillation counter, after the addition of 10 ml Hionic Fluor scintillant (Packard). ^14C/^3H-Sucrose served to correct for vascular volume of vessels contained in the pellet, and also activity that had leaked from the vasculature into the supernatant during the homogenisation procedure.
Volumes of distribution for pellet and supernatant were calculated as shown below. Data is expressed as ratio of volume of distribution in the supernatant to pellet. […]

In situ brain perfusion = assay type: in vivo; parameters: unit not given here; details: unidirectional brain influx constant, perfusion 2-30 minutes

T1 sequence (P05067 672-711 limits assumed): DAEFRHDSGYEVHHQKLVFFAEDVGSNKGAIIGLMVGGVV

^14C-FDG [reference compound]
Mean BUI [1]: 17.98

^99mTc-Pn216-KKLVFF (BAP 15-20): ^99mTc-labelled BAP sequence responsible for the binding of BAP to itself
Amyloid binding (% of 125I-BAP 1-40) [2]: 9%

Cc1cc(-c2nc3cc([125I])ccc3s2)ccc1N [Compound 1, 5-[^125I]-iodo-2-(4′-amino-3′-methylphenyl)benzothiazole]
t½ (α) of clearance from brain ([3]; 1 μCi tail vein bolus): 12.4 min
relative retention, blood ([3]; 5 minutes): 1.04
relative retention, brain ([3]; 5 minutes): 1.01
thyroid uptake ([3]; over two hour experiment, indicates in vivo stability to deiodination): < 1%
Clearance through the body ([3]; rat, in vivo): largely via the hepatobiliary system
percentage injected dose, Blood ([3]; 5 min): 6.05 % ID
percentage injected dose, Brain ([3]; 5 min): 0.94 % ID
percentage injected dose, Fat ([3]; 5 min): 30.82 % ID
percentage injected dose, Kidney ([3]; 5 min): 3.14 % ID
percentage injected dose, LI (large intestines) ([3]; 5 min): 1.53 % ID
percentage injected dose, Muscle ([3]; 5 min): 21.49 % ID
percentage injected dose, SI (small intestines) ([3]; 5 min): 9.04 % ID
percentage injected dose, Skin ([3]; 5 min): 8.92 % ID
percentage injected dose, Spleen ([3]; 5 min): 0.69 % ID
percentage injected dose, Stomach ([3]; 5 min): 1.82 % ID
percentage injected dose, inj site ([3]; 5 min): 2.12 % ID
percentage injected dose, liver ([3]; 5 min): 19.47 % ID
percentage injected dose, lung ([3]; 5 min): 1.40 % ID
percentage injected dose, thyroid ([3]; 5 min): 0.16 % ID
percentage injected dose, urine ([3]; 5 min): 0.04 % ID
percentage injected dose, Blood ([3]; 15 min): 4.14 % ID
percentage injected dose, Brain ([3]; 15 min): 0.75 % ID
percentage injected dose, Fat ([3]; 15 min): 36.31 % ID
percentage injected dose, Kidney ([3]; 15 min): 1.60 % ID
percentage injected dose, LI (large intestines) ([3]; 15 min): 1.77 % ID
percentage injected dose, Muscle ([3]; 15 min): 19.83 % ID
percentage injected dose, SI (small intestines) ([3]; 15 min): 12.60 % ID
percentage injected dose, Skin ([3]; 15 min): 12.80 % ID
percentage injected dose, Spleen ([3]; 15 min): 0.32 % ID
percentage injected dose, Stomach ([3]; 15 min): 2.56 % ID
percentage injected dose, inj site ([3]; 15 min): 1.86 % ID
percentage injected dose, liver ([3]; 15 min): 7.48 % ID
percentage injected dose, lung ([3]; 15 min): 0.49 % ID
percentage injected dose, thyroid ([3]; 15 min): 0.16 % ID
percentage injected dose, urine ([3]; 15 min): 2.10 % ID
percentage injected dose, Blood ([3]; 30 min): 3.58 % ID
percentage injected dose, Brain ([3]; 30 min): 0.49 % ID
percentage injected dose, Fat ([3]; 30 min): 59.02 % ID
percentage injected dose, Kidney ([3]; 30 min): 0.95 % ID
percentage injected dose, LI (large intestines) ([3]; 30 min): 1.90 % ID
percentage injected dose, Muscle ([3]; 30 min): 12.59 % ID
percentage injected dose, SI (small intestines) ([3]; 30 min): 21.93 % ID
percentage injected dose, Skin ([3]; 30 min): 16.90 % ID
percentage injected dose, Spleen ([3]; 30 min): 0.19 % ID
percentage injected dose, Stomach ([3]; 30 min): 6.66 % ID
percentage injected dose, inj site ([3]; 30 min): 3.05 % ID
percentage injected dose, liver ([3]; 30 min): 4.46 % ID
percentage injected dose, lung ([3]; 30 min): 0.48 % ID
percentage injected dose, thyroid ([3]; 30 min): 0.39 % ID
percentage injected dose, urine ([3]; 30 min): 1.63 % ID
percentage injected dose, Blood ([3]; 60 min): 2.77 % ID
percentage injected dose, Brain ([3]; 60 min): 0.29 % ID
percentage injected dose, Fat ([3]; 60 min): 73.92 % ID
percentage injected dose, Kidney ([3]; 60 min): 0.63 % ID
percentage injected dose, LI (large intestines) ([3]; 60 min): 7.75 % ID
percentage injected dose, Muscle ([3]; 60 min): 7.79 % ID
percentage injected dose, SI (small intestines) ([3]; 60 min): 28.42 % ID
percentage injected dose, Skin ([3]; 60 min): 17.14 % ID
percentage injected dose, Spleen ([3]; 60 min): 0.15 % ID
percentage injected dose, Stomach ([3]; 60 min): 8.98 % ID
percentage injected dose, inj site ([3]; 60 min): 1.83 % ID
percentage injected dose, liver ([3]; 60 min): 3.12 % ID
percentage injected dose, lung ([3]; 60 min): 0.34 % ID
percentage injected dose, thyroid ([3]; 60 min): 0.17 % ID
percentage injected dose, urine ([3]; 60 min): 8.39 % ID
percentage injected dose, Blood ([3]; 120 min): 2.27 % ID
percentage injected dose, Brain ([3]; 120 min): 0.18 % ID
percentage injected dose, Fat ([3]; 120 min): 55.62 % ID
percentage injected dose, Kidney ([3]; 120 min): 0.45 % ID
percentage injected dose, LI (large intestines) ([3]; 120 min): 3.12 % ID
percentage injected dose, Muscle ([3]; 120 min): 5.60 % ID
percentage injected dose, SI (small intestines) ([3]; 120 min): 26.86 % ID
percentage injected dose, Skin ([3]; 120 min): 12.89 % ID
percentage injected dose, Spleen ([3]; 120 min): 0.08 % ID
percentage injected dose, Stomach ([3]; 120 min): 9.29 % ID
percentage injected dose, inj site ([3]; 120 min): 2.62 % ID
percentage injected dose, liver ([3]; 120 min): 2.39 % ID
percentage injected dose, lung ([3]; 120 min): 0.23 % ID
percentage injected dose, thyroid ([3]; 120 min): 0.95 % ID
percentage injected dose, urine ([3]; 120 min): 10.02 % ID
Mean BUI [1]: 43.6
BBB penetration (from BUI) ([1]; cut off low/medium 20%): medium to high BBB penetration
Amyloid binding (% of 125I-BAP 1-40) [2]: 27%
Papp (CACO-2 cells): 13.7 ×10⁻⁶ cm/s
LogP (LogP and delta LogP): 1.75
ΔLogP (LogP and delta LogP): −0.38
Ratio of VD supernatant/pellet (Capillary depletion): 7.2
Kin (In situ brain perfusion): 49.8

O=C[C@H](O)[C@@H](O)[C@H](O)[C@H](O)CO [^14C-Glucose, ^14C-glucose]
Papp (CACO-2 cells): 57.9 ×10⁻⁶ cm/s

OCC(O)C(O)C(O)C(O)[14CH2]O (centres unmarked) [^14C-mannitol]
Papp (CACO-2 cells): 3.63 ×10⁻⁶ cm/s

^125I-KKLVFFA (BAP 15-21): ^125I-labelled BAP 15-21 sequence (Amersham Biosciences) (not fully specified (N-terminus); also: 125I label, site not given here)
Amyloid binding (% of 125I-BAP 1-40) [2]: 21%

CN1C(=O)CN=C(c2ccccc2)c2cc(Cl)ccc21 [^14C-diazapam, ^14C-diazepam]
Papp (CACO-2 cells): 24.4 ×10⁻⁶ cm/s

^125I-BAP 1-40: ^125I-beta amyloid protein 1-40, Amersham Biosciences IM294; reference taken as 100% binding
Amyloid binding (% of 125I-BAP 1-40) [2]: 100%
